Tests used:
[1] = test system: antibodies isolated from the serum of the first bleed of the rabbit; assay: affinity column binding of 14C-labeled analytes from aqueous solution; conditions: for binding by the affinity column: 14C-labeled analogs, test of non-specific binding
Experimental: (§1) Affinity Chromatography. The preparation of affinity columns using rabbit antisera was as follows: The rabbit IgG's were purified by passing 5 mL of the antiserum through a column containing 5 mL of the swelled protein A-agarose gel. By monitoring the absorbance at 280 nm in the column effluent, the non-bound proteins were removed by washing with PBS, and the IgG's were then eluted with acetic acid at pH 2.3 (0.58% acetic acid and 0.15 M NaCl). The fractions containing the IgG's were combined and neutralized; based on the UV absorbance at 280 nm (absorbance/1.4 = mg/mL protein), approximately 33 mg of IgG were isolated from 5 mL of serum, which was then lyophilized and stored at -20°C. The reusable protein A-agarose column was stored in PBS containing 0.02% sodium azide at 4°C.
(§2) The protein A-purified IgG was immobilized onto Affigel-10 affinity support. Affigel-10 (5 mL) was washed 3 times with isopropyl alcohol and 3 times with cold distilled water in a Buchner funnel. The gel was then added to a solution of IgG (3 mL in 0.1 M HEPES buffer, pH 7.5) at 4°C. Following 4 hrs of stirring, the gel was precipitated by gentle centrifugation and washed with HEPES buffer (3 x 3 mL). The remaining active sites on the gel were blocked by resuspending the gel in water (2 mL) and adding ethanolamine HCl (0.5 mL, 1M), and stirring the mixture at 22°C for 1 hr. The affinity column was useful in adsorbing alachlor and other analytes from aqueous solutions. After binding the alachlor, the column was washed with water (2 mL/min) to remove unbound material and alachlor was eluted with 75% aqueous methanol.
Using the antibodies isolated from the serum of the first bleed of the rabbit, an affinity column for alachlor was constructed to study its utility as an isolation and purification tool. The IgG's in the serum of the rabbit immunized with the alachlor-IgG conjugate were purified with a protein A-agarose column. The purified IgG was then immobilized onto the Affigel-10 support. Alachlor (¹⁴C-labeled) in aqueous solution was passed through the column with a flow rate of 2 mL/min; the column was washed with water and eluted with 75% aqueous methanol. The radioactivity in the wash and eluent were determined by liquid scintillation counting. […] The capacity of the column was less than 1 µg, and once this level was exceeded, alachlor no longer bound to the column. The recovery of applied radioactivity generally ranged from 80% to 100%. In a second experiment, alachlor (0.5 µg) was dissolved into increasing volumes of water ranging from 1 mL to 100 mL.
To eliminate the possibility of non-specific binding of alachlor to the affinity column, other ¹⁴C-labeled analogs were also studied. These included acetanilide herbicides butachlor, acetochlor, metolachlor, and propachlor and the previously mentioned alachlor metabolites mercapturate and its methyl ester. The affinity column bound butachlor and acetochlor, but not metolachlor, propachlor, or mercapturate.

affinity column = affinity column extraction of alachlor from rat urine containing alachlor metabolites; assay type: binding, rabbit; conditions: 0.5 µg/2 mL Urine
Experimental: as §1
as §2, with “The affinity column was useful in adsorbing alachlor and other analytes from aqueous solutions. After binding the alachlor, the column was washed with water (2 mL/min) to remove unbound material and alachlor was eluted with 75% aqueous methanol.” left out

Structure (SMILES): CCOCN(C(=O)CCl)c1c(C)cccc1CC [Acetochlor, acetochlor]
- binding by the affinity column [1]: bound

Structure (SMILES): CCc1cccc(CC)c1N(COC)C(=O)CCl [Alachlor, α-chloro-2′,6′-diethyl-N-methoxymethyl acetanilide]
- extraction of alachlor by the column ([1]; 0.5 µg per 1 mL to 0.5 µ/50 mL (0.5 ppm to 10 ppb) in water): effectively extracted
- efficiency of alachlor extraction by the column reduced by ([1]; 0.5 µg/100 mL (5 ppb) in water): 50%
- capacity of the column ([1]; alachlor): less than 1 µg
- % 14C Eluent (75% CH3OH) (affinity column): 83.3%
- % 14C Wash (H2O) (affinity column): 14.7%

Structure (SMILES): CC(C)N(C(=O)CCl)c1ccccc1 [Propachlor, propachlor]
- binding by the affinity column [1]: not
